# Measured values from patent US20240285502A1, “HAIR GROWTH AGENT” (ADJUVANT HOLDINGS CO., LTD., priority 2021, published 2024).
# Tested on: VEGF gene expression in human dermal papilla cells
# Assay: Evaluation of human dermal papilla cell VEGF gene expression (real-time PCR)
# Type: cell-based
# Details: 72 hours stimulation, relative to negative control group, GAPDH internal standard, FIG. 1
# Description: The VEGF gene is expressed in dermal papilla cells, and contributes to expression of such effects as increase in hair shaft diameter and improving maximum hair shaft length and improving hair shaft elongation rate and hair shaft growth promotion at head hair, beard, eyebrows, and/or eyelashes. Human dermal papilla cells were therefore used, and evaluation was carried out with respect to increase in VEGF gene expression for the respective components. Human dermal papilla cells (Catalog No. CA60205a; derived from person; Toyobo Co., Ltd. (Japan)) were purchased, testing and evaluation being carried out with maintenance and culture of cells being performed as described in the protocol. As drugs for testing, drug solutions of the following respective concentrations (final concentrations) were prepared and used. • Comparative Example 1: 30 μM minoxidil • Working Example 1: 0.3125 μM phytosphingosine • Working Example 2: 1.25 μM phytosphingosine • Working Example 3: Liquid mixture of 30 μM minoxidil and 1.25 μM phytosphingosine A 24-well plate was seeded with human dermal papilla cells so as to obtain 6×10^3 thereof per well. Following culture for 1 day within a CO2 incubator (5% CO2; 37° C.), the culture medium was replaced with culture medium which contained the respective drugs for testing. The cell plate was thereafter returned to the CO2 incubator, and this was further cultured for 72 hours. […] The GAPDH gene was used as an internal standard, the amount of VEGF gene expression being calculated relative to the negative control group. […] Concentration of the recovered RNA was measured using a NanoDrop Lite (Catalog No. ND-LITE; Thermo Fisher Scientific K.K.), and this was stored at -80° C. until the following cDNA creation procedure. […] II cDNA synthesis 5× Ready Mix (Catalog No. NE-LS64; Nippon Genetics Co., Ltd. (Japan)) was used to synthesize cDNA. […] II cDNA synthesis 5× Ready Mix was added to 16 μL of this sample solution, and this was agitated by vortexing. […]
compound,measurement,value
CCCCCCCCCCCCCC[C@@H](O)[C@@H](O)[C@@H](N)CO [phytosphingosine],change in amount of expression of the VEGF gene,significantly greater than that which was produced as a result of action of minoxidil
"CCCCCCCCCCCCCC[C@@H](O)[C@@H](O)[C@@H](N)CO [Working Example 1, phytosphingosine]",change in amount of expression of the VEGF gene,increase in dosage-dependent fashion in the amount of expression of the VEGF gene as compared with the control group
"CCCCCCCCCCCCCC[C@@H](O)[C@@H](O)[C@@H](N)CO [Working Example 2, phytosphingosine]",change in amount of expression of the VEGF gene,increase in dosage-dependent fashion in the amount of expression of the VEGF gene as compared with the control group
